Data: ChEMBL document CHEMBL6109104, “Synthesis and antibacterial evaluations of novel vancomycin analogues targeting bacteria membrane to combat Gram-negative infections” (Eur J Med Chem, 2025)
In brackets after ≈: the same amount, converted by molar mass. Activity calls are given as the source filed them. The rule behind the calls is not given here.

Assays:
[1] = Toxicity in Kunming mouse infected with Acinetobacter baumannii ATCC17978 assessed as changed in body weight at 10 to 20 mg/kg; assay type: organism-based; conditions: in vivo, dose 10-20 mg/kg
[2] = test system: Acinetobacter baumannii; experiment: Antibacterial activity against Acinetobacter baumannii ATCC17978 assessed as bactericidal rate by measuring bacterial count at 8 times MIC incubated for 4 hrs by muller-hinton agar based time-kill kinetics assay; assay type: functional, organism-based
[3] = test system: Cell membrane; experiment: Induction of cytoplasmic membrane permeabilization in Acinetobacter baumannii ATCC17978 assessed as increase in fluorescence intensity at 16 times MIC incubated for 10 mins by SYTOX green assay
[4] = Hemolytic activity in sheep RBC at 64 ug/ml incubated for 1 hrs by absorbance based analysis; assay type: toxicity, cell-based, Ovis aries; conditions: erythrocyte, dose 64 µg/ml
[5] = test system: Escherichia coli; experiment: Antibacterial activity against Escherichia coli ATCC35150 incubated for 16 to 18 hrs by muller hinton broth based microplate reader analysis; assay type: functional; conditions: time 16-18 hrs
[6] = test system: Acinetobacter baumannii; experiment: Antibacterial activity against Acinetobacter baumannii ATCC17978 assessed as bactericidal rate by measuring bacterial count incubated for 6 hrs by muller-hinton agar based time-kill kinetics assay; assay type: functional, organism-based
[7] = test system: Cell membrane; experiment: Disruption of cell membrane in Acinetobacter baumannii ATCC17978 assessed as increase in DNA leakage incubated for 4 hrs by microspectrophotometer analysis
[8] = test system: Acinetobacter baumannii; experiment: Antibacterial activity against Acinetobacter baumannii ATCC17978 assessed as bactericidal rate by measuring bacterial count at 4 times MIC incubated for 4 hrs by muller-hinton agar based time-kill kinetics assay relative to control; assay type: functional
[9] = test system: Acinetobacter baumannii; experiment: Antibacterial activity against Acinetobacter baumannii ATCC17978 infected in neutropenic thigh infection Kunming mouse model assessed as reduction in bacterial load in thigh at 10 to 20 mg/kg, sc pretreated with bacteria for 2 hrs followed by compound addition and measured after 16 hrs; assay type: functional, organism-based; conditions: dose 10-20 mg/kg
[10] = test system: Staphylococcus aureus; experiment: Antibacterial activity against methicillin-resistant Staphylococcus aureus USA300 incubated for 16 to 18 hrs by muller hinton broth based microplate reader analysis; assay type: functional; conditions: time 16-18 hrs
[11] = test system: Acinetobacter baumannii; experiment: Antibacterial activity against Acinetobacter baumannii ATCC17978 incubated for 16 to 18 hrs by muller hinton broth based microplate reader analysis; assay type: functional; conditions: time 16-18 hrs
[12] = test system: HEK-293T; experiment: Cytotoxicity against HEK293T cells at 64 ug/ml incubated for 72 hrs by MTT assay; assay type: toxicity, cell-based; conditions: human, dose 64 µg/ml
[13] = test system: Staphylococcus aureus; experiment: Antibacterial activity vancomycin-intermediate resistant Staphylococcus aureus incubated for 16 to 18 hrs by muller hinton broth based microplate reader analysis; assay type: functional; conditions: time 16-18 hrs
[14] = test system: Cell membrane; experiment: Disruption of cell membrane in Acinetobacter baumannii ATCC17978 assessed as increase in protein leakage incubated for 4 hrs by BCA assay
[15] = test system: Escherichia coli; experiment: Antibacterial activity against Escherichia coli ATCC25922 incubated for 16 to 18 hrs by muller hinton broth based microplate reader analysis; assay type: functional; conditions: time 16-18 hrs
[16] = test system: Acinetobacter baumannii; experiment: Antibacterial activity against Acinetobacter baumannii ATCC19606 incubated for 16 to 18 hrs by muller hinton broth based microplate reader analysis; assay type: functional; conditions: time 16-18 hrs
[17] = test system: Acinetobacter baumannii; experiment: Antibacterial activity against Acinetobacter baumannii ATCC17978 incubated for 12 hrs and measured after 20 passages; assay type: functional, organism-based
[18] = test system: Cell membrane; experiment: Induction of cell membrane disruption in Acinetobacter baumannii ATCC17978 assessed as increase in ROS level incubated for 30 mins by DCFH-DA probe based microplate reader analysis
[19] = test system: Acinetobacter baumannii; experiment: Antibacterial activity against Acinetobacter baumannii ATCC17978 infected in neutropenic thigh infection Kunming mouse model assessed as reduction in bacterial load in thigh at 20 mg/kg, sc pretreated with bacteria for 2 hrs followed by compound addition and measured after 16 hrs; assay type: functional, organism-based
[20] = test system: Acinetobacter baumannii; experiment: Antibacterial activity against Acinetobacter baumannii ATCC17978 infected in neutropenic thigh infection Kunming mouse model assessed as reduction in bacterial survival at 10 mg/kg, sc pretreated with bacteria for 2 hrs followed by compound addition and measured after 16 hrs; assay type: functional, organism-based
[21] = test system: HEK-293T; experiment: Cytotoxicity against HEK293T cells at 1.0 uM incubated for 72 hrs by MTT assay relative to control; assay type: toxicity, cell-based; conditions: human
[22] = test system: HEK-293T; experiment: Cytotoxicity against HEK293T cells at 0.5 uM incubated for 72 hrs by MTT assay relative to control; assay type: toxicity, cell-based; conditions: human

Row | Structure (SMILES) | MIC [5] | MIC [10] | MIC [11] | MIC [13] | MIC [15] | MIC [16] | also measured
1 | CCCCCCCCCCCC[N+]1(C)CCN(C(=O)[C@H]2NC(=O)[C@H]3NC(=O)[C@H](NC(=O)[C@@H]4NC(=O)[C@H](CC(N)=O)NC(=O)[C@H](NC(=O)[C@@H](CC(C)C)NC)[C@H](O)c5ccc(c(Cl)c5)Oc5cc4cc(c5O[C@@H]4O[C@H](CO)[C@@H](O)[C@H](O)[C@H]4O[C@H]4C[C@](C)(N)[C@H](O)[C@H](C)O4)Oc4ccc(cc4Cl)[C@H]3O)c3ccc(O)c(c3)-c3c(O)cc(O)cc32)CC1.[Br-] (stereo in doubt) | 16 µg/mL | 1 µg/mL | 8 µg/mL | 8 µg/mL | 16 µg/mL | 16 µg/mL | Activity [1]: Non-toxic; Activity [2]: inactive; Activity [3]: Active; Activity [4]: Toxic; Activity [6]: Dose-dependent-effect; Activity [7]: Dose-dependent-effect; Activity [8]: 100%; Activity [9]: Active; Activity [12]: Non-toxic; Activity [14]: Dose-dependent-effect; Activity [17]: Active; Activity [18]: Active
2 | CN[C@H](CC(C)C)C(=O)N[C@H]1C(=O)N[C@@H](CC(N)=O)C(=O)N[C@H]2C(=O)N[C@H]3C(=O)N[C@H](C(=O)N[C@H](C(=O)O)c4cc(O)cc(O)c4-c4cc3ccc4O)[C@H](O)c3ccc(c(Cl)c3)Oc3cc2cc(c3O[C@@H]2O[C@H](CO)[C@@H](O)[C@H](O)[C@H]2O[C@H]2C[C@](C)(N)[C@H](O)[C@H](C)O2)Oc2ccc(cc2Cl)[C@H]1O [VANCOMYCIN] | > 128 µg/mL | – | > 128 µg/mL | – | > 128 µg/mL | > 128 µg/mL | Activity [19]: inactive
3 | O=C(O)c1cn(C2CC2)c2cc(N3CCNCC3)c(F)cc2c1=O [CIPROFLOXACIN] | – | 0.25 µg/mL (≈ 0.754 µM) | 0.5 µg/mL (≈ 1.51 µM) | 1 µg/mL (≈ 3.02 µM) | – | 1 µg/mL (≈ 3.02 µM) | Activity [2]: Active; Activity [20]: Active
4 | CN[C@H](CC(C)C)C(=O)N[C@H]1C(=O)N[C@@H](CC(N)=O)C(=O)N[C@H]2C(=O)N[C@H]3C(=O)N[C@H](C(=O)N[C@H](C(=O)N4CCN(C)CC4)c4cc(O)cc(O)c4-c4cc3ccc4O)[C@H](O)c3ccc(c(Cl)c3)Oc3cc2cc(c3O[C@@H]2O[C@H](CO)[C@@H](O)[C@H](O)[C@H]2O[C@H]2C[C@](C)(N)[C@H](O)[C@H](C)O2)Oc2ccc(cc2Cl)[C@H]1O (stereo in doubt) | > 128 µg/mL | 4 µg/mL (≈ 2.61 µM) | > 128 µg/mL | > 128 µg/mL | > 128 µg/mL | > 128 µg/mL | –
5 | COc1cccc2c1C(=O)c1c(O)c3c(c(O)c1C2=O)C[C@@](O)(C(=O)CO)C[C@@H]3O[C@H]1C[C@H](N)[C@H](O)[C@H](C)O1 [DOXORUBICIN] | – | – | – | – | – | – | Activity [21]: 85.6%; Activity [22]: 27.3%
6 | CN[C@H](CC(C)C)C(=O)N[C@H]1C(=O)N[C@@H](CC(N)=O)C(=O)N[C@H]2C(=O)N[C@H]3C(=O)N[C@H](C(=O)N[C@H](C(=O)O)c4cc(O)cc(O)c4-c4cc3ccc4O)[C@H](O)c3ccc(c(Cl)c3)Oc3cc2cc(c3O[C@@H]2O[C@H](CO)[C@@H](O)[C@H](O)[C@H]2O[C@H]2C[C@](C)(NC(=O)CCCCCCC[n+]3ccc(C)cc3)[C@H](O)[C@H](C)O2)Oc2ccc(cc2Cl)[C@H]1O.[Br-] | > 128 µg/mL | 8 µg/mL | > 128 µg/mL | > 128 µg/mL | > 128 µg/mL | > 128 µg/mL | –
7 | CN[C@H](CC(C)C)C(=O)N[C@H]1C(=O)N[C@@H](CC(N)=O)C(=O)N[C@H]2C(=O)N[C@H]3C(=O)N[C@H](C(=O)N[C@H](C(=O)O)c4cc(O)cc(O)c4-c4cc3ccc4O)[C@H](O)c3ccc(c(Cl)c3)Oc3cc2cc(c3O[C@@H]2O[C@H](CO)[C@@H](O)[C@H](O)[C@H]2O[C@H]2C[C@](C)(NC(=O)CCCCCCCCC[n+]3ccc(C)cc3)[C@H](O)[C@H](C)O2)Oc2ccc(cc2Cl)[C@H]1O.[Br-] | > 128 µg/mL | 8 µg/mL | > 128 µg/mL | > 128 µg/mL | > 128 µg/mL | > 128 µg/mL | –
8 | CCCCCCCCCCCCCC[N+]1(C)CCN(C(=O)c2ccc(CN[C@@]3(C)C[C@H](O[C@H]4[C@H](Oc5c6cc7cc5Oc5ccc(cc5Cl)[C@@H](O)[C@@H](NC(=O)[C@@H](CC(C)C)NC)C(=O)N[C@@H](CC(N)=O)C(=O)N[C@H]7C(=O)N[C@H]5C(=O)N[C@H](C(=O)N[C@H](C(=O)O)c7cc(O)cc(O)c7-c7cc5ccc7O)[C@H](O)c5ccc(c(Cl)c5)O6)O[C@H](CO)[C@@H](O)[C@@H]4O)O[C@@H](C)[C@H]3O)cc2)CC1.[Br-] | > 128 µg/mL | 2 µg/mL | > 128 µg/mL | 64 µg/mL | > 128 µg/mL | > 128 µg/mL | –
9 | CCCCCCCCCCCC[n+]1ccc(C(=O)NCCNC(=O)[C@@H]2NC(=O)[C@H]3NC(=O)[C@H](NC(=O)[C@@H]4NC(=O)[C@H](CC(N)=O)NC(=O)[C@H](NC(=O)[C@@H](CC(C)C)NC)[C@H](O)c5ccc(c(Cl)c5)Oc5cc4cc(c5O[C@@H]4O[C@H](CO)[C@@H](O)[C@H](O)[C@H]4O[C@H]4C[C@](C)(N)[C@H](O)[C@H](C)O4)Oc4ccc(cc4Cl)[C@H]3O)c3ccc(O)c(c3)-c3c(O)cc(O)cc32)cc1.[Br-] (stereo in doubt) | > 128 µg/mL | 2 µg/mL | 64 µg/mL | 64 µg/mL | > 128 µg/mL | 16 µg/mL | –
10 | CCCCCCCCCCCC[N+]1(C)CCN(C(=O)c2ccc(CN[C@@]3(C)C[C@H](O[C@H]4[C@H](Oc5c6cc7cc5Oc5ccc(cc5Cl)[C@@H](O)[C@@H](NC(=O)[C@@H](CC(C)C)NC)C(=O)N[C@@H](CC(N)=O)C(=O)N[C@H]7C(=O)N[C@H]5C(=O)N[C@H](C(=O)N[C@H](C(=O)O)c7cc(O)cc(O)c7-c7cc5ccc7O)[C@H](O)c5ccc(c(Cl)c5)O6)O[C@H](CO)[C@@H](O)[C@@H]4O)O[C@@H](C)[C@H]3O)cc2)CC1.[Br-] | > 128 µg/mL | 2 µg/mL | 32 µg/mL | 64 µg/mL | > 128 µg/mL | 16 µg/mL | –
11 | CN[C@H](CC(C)C)C(=O)N[C@H]1C(=O)N[C@@H](CC(N)=O)C(=O)N[C@H]2C(=O)N[C@H]3C(=O)N[C@H](C(=O)N[C@H](C(=O)O)c4cc(O)cc(O)c4-c4cc3ccc4O)[C@H](O)c3ccc(c(Cl)c3)Oc3cc2cc(c3O[C@@H]2O[C@H](CO)[C@@H](O)[C@H](O)[C@H]2O[C@H]2C[C@](C)(NC(=O)CCCCCCCCCCC[n+]3cccc(O)c3)[C@H](O)[C@H](C)O2)Oc2ccc(cc2Cl)[C@H]1O.[Br-] | > 128 µg/mL | 8 µg/mL | > 128 µg/mL | 64 µg/mL | > 128 µg/mL | > 128 µg/mL | –
